Experimental data: patent US6593334B1, “Camptothecin-taxoid conjugates as antimitotic and antitumor agents” (The University of North Carolina at Chapel Hill, priority 2002, dated 2003)

Assays:
[1] = test system: KB-CPT (camptothecin-resistant KB sub-line); assay: Human tumor cell replication assay (sulforhodamine B), KB-CPT; assay type: cell-based; details: camptothecin-resistant KB-CPT cells, three days of continuous exposure, SRB assay
Experimental: (§1) Human Tumor Cell Replication Assay. Compounds were tested as inhibitors of cell growth against a limited panel of solid tumor lines including KB (epidermoid carcinoma, CL 17) and a camptothecin-resistant sub-line called KB-CPT; HCT-8 (ileocecal adenocarcinoma, CCL 244); MCF-7 (breast adenocarcinoma, HTB 22); PC-3 (prostate adenocarcinoma, CRL 1435); 1A9 (ovarian carcinoma) and a paclitaxel resistant sub-line called PTX10 with mutated β-tubulin. Drug-resistant cell lines were generous gifts of Dr. Y. C. Cheng (Yale University, New Haven, Conn.) and Dr. P. Giannakakou (NIH, Bethesda, Md.). Cell lines were adapted for growth in RPMI-1640 medium supplemented with 25 mM Hepes, 2% NaHCO3, 10% (v/v) fetal calf serum and 100 μg/mL kanamycin. Cultures were maintained in a 5% CO2 atmosphere at 37° C. The sulforhodamine B microtiter plate assay described by Rubinstein et al. (1990) J. Natl. Cancer Inst. 82:1113, was used to evaluate compounds as inhibitors of cell replication. The ED50 value, the concentration of compound that inhibited cell line replication by 50% relative to control after three days of continuous exposure was interpolated from dose-response graphs fitted to data using Prizm (GraphPad software, San Diego, Calif.).
(§2) The five conjugates (16-20) were tested for cytotoxicity against a panel of human tumor cell lines (HTCL) including paclitaxel-resistant and camptothecin-resistant derivatives as described in Rubinstein et al. (1990) J. Natl. Cancer Inst. 82:1113. The results are shown in Table 2 with the values for paclitaxel (1) and camptothecin (2) given for comparison.

[2] = test system: KB (epidermoid carcinoma); assay: Human tumor cell replication assay (sulforhodamine B), KB; assay type: cell-based; details: KB cells; for Cell Line/ED50 KB: three days of continuous exposure, SRB assay
Experimental: as §1, §2

[3] = test system: 1A9 (ovarian carcinoma); assay: Human tumor cell replication assay (sulforhodamine B), 1A9; assay type: cell-based; details: IA9 cells; for Cell Line/ED50 IA9: three days of continuous exposure, SRB assay
Experimental: as §1, §2

[4] = test system: MCF-7 (breast adenocarcinoma); assay: Human tumor cell replication assay (sulforhodamine B), MCF-7; assay type: cell-based; details: MCF-7 cells, three days of continuous exposure, SRB assay
Experimental: as §1, §2

[5] = test system: HCT-8 (ileocecal adenocarcinoma); assay: Human tumor cell replication assay (sulforhodamine B), HCT-8; assay type: cell-based; details: HCT8 cells, three days of continuous exposure, SRB assay
Experimental: as §1, §2

[6] = test system: 1A9-PTX10 (paclitaxel resistant sub-line with mutated β-tubulin); assay: Human tumor cell replication assay (sulforhodamine B), PTX10; assay type: cell-based; details: paclitaxel-resistant IA9-PTX10 cells, three days of continuous exposure, SRB assay
Experimental: as §1, §2

[7] = test system: PC-3 (prostate adenocarcinoma); assay: Human tumor cell replication assay (sulforhodamine B), PC-3; assay type: cell-based; details: PC-3 cells, three days of continuous exposure, SRB assay
Experimental: as §1, §2

[8] = target: T1, human DNA Topoisomerase I (Homo sapiens, UniProt P11387); assay: DNA Topoisomerase I activity assay (plasmid DNA relaxation); assay type: biochemical
T1 construct: purchased TopoGen, Columbus, Ohio
T1 sequence (P11387 1-765): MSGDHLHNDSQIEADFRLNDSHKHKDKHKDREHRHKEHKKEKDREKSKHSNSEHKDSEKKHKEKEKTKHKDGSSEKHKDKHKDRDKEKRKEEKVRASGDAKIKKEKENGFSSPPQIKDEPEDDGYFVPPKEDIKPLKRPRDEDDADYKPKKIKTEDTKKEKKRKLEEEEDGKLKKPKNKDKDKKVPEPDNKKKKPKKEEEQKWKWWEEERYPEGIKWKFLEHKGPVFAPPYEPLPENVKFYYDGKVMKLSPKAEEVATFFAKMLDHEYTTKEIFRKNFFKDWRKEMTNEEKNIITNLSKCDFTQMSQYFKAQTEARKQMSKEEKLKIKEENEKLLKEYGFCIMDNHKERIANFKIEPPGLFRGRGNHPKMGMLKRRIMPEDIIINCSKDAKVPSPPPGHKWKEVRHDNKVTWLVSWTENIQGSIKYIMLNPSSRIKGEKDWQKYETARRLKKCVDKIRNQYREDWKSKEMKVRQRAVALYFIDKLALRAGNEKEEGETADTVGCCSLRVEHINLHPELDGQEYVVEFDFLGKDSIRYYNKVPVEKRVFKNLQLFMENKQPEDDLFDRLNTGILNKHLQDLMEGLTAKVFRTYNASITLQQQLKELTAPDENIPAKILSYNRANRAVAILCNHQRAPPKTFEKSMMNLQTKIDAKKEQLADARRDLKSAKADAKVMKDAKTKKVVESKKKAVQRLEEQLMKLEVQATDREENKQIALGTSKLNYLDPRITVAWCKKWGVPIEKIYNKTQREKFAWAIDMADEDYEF
Experimental: DNA Topoisomerase I Activity Assay. Compounds were tested as inhibitors of enzyme catalyzed plasmid DNA relaxation. Reactions contained 0.5 μg pBR322 DNA and 0.5 U human DNA Topoisomerase I (TopoGen, Columbus, Ohio), compounds at 50 μM and buffer components described previously in Krishnan et al. (2000) Anticancer Drug Design 15:255. After 15 min at 37° C., reactions were terminated by adding proteinase K (0.1 mg/mL) and 1% (w/v) SDS. After 1 hour at 50° C., DNA was resolved on a 1% (w/v) agarose gel containing […] ethidium bromide in standard TBE buffer, and photographed under UV light using polaroid 667 film.
Conjugates 16-20 were also tested as inhibitors of human DNA topo I activity in vitro (FIG. 4) in the manner as described in Krishnan et al. (2000) Anticancer Drug Design 15:255. […] None of the conjugates inhibited DNA relaxation.

[9] = test system: human tumor cell lines (HTCL); assay: Human tumor cell line (HTCL) panel, mean over lines; assay type: cell-based; details: mean from HTCL data, does not include values for drug-resistant variants
Experimental: as §1, §2

[10] = at lowest test concentration (inhibition >50%)

| Compound | Cell Line/ED50 KB-CPT [1] [log10 M] | Cell Line/ED50 KB [2] [log10 M] | Cell Line/ED50 IA9 [3] [log10 M] | Cell Line/ED50 MCF-7 [4] [log10 M] | Cell Line/ED50 HCT8 [5] [log10 M] | Cell Line/ED50 IA9-PTX10 [6] [log10 M] | Cell Line/ED50 PC-3 [7] [log10 M] | inhibition of human DNA topo I activity in vitro [8] | Mean ED50 [9] [log10 M] | observed percentage inhibition (bracketed value) [2, 10] | observed percentage inhibition (bracketed value) [3, 10] |
| --- | --- | --- | --- | --- | --- | --- | --- | --- | --- | --- | --- |
| CCC1(O)C(=O)OCc2c1cc1n(c2=O)Cc2c-1nc1ccccc1c2C=NCCCCCC(=O)OC1CC2OCC2(OC(C)=O)C2C(OC(=O)c3ccccc3)C3(O)CC(OC(=O)C(O)C(NC(=O)c4ccccc4)c4ccccc4)C(C)=C(C(OC(C)=O)C(=O)C12C)C3(C)C (stereo not drawn) [Compound 18] | −8.1 | −9.3 | −10.0 | −7.5 | −10.6 | −10.5 | −7.5 | only marginal activity | −9.0 | – | – |
| CCC1(O)C(=O)OCc2c1cc1n(c2=O)Cc2c-1nc1ccccc1c2C=NCCC(=O)OC1CC2OCC2(OC(C)=O)C2C(OC(=O)c3ccccc3)C3(O)CC(OC(=O)C(O)C(NC(=O)c4ccccc4)c4ccccc4)C(C)=C(C(OC(C)=O)C(=O)C12C)C3(C)C (stereo not drawn) [Compound 16] | −11.1 | <−11.0 | <−11.0 | −7.1 | −10.6 | −10.9 | −7.0 | only marginal activity | <−9.3 | (67) % | (76) % |
| CC[C@@]1(O)C(=O)OCc2c1cc1n(c2=O)Cc2cc3ccccc3nc2-1 [Camptothecin, camptothecin] | −7.5 | −10.8 | −10.2 | −7.1 | −9.3 | −9.4 | −7.1 | – | −8.9 | – | – |
| CCC1(O)C(=O)OCc2c1cc1n(c2=O)Cc2c-1nc1ccccc1c2C=NCCCC(=O)OC1CC2OCC2(OC(C)=O)C2C(OC(=O)c3ccccc3)C3(O)CC(OC(=O)C(O)C(NC(=O)c4ccccc4)c4ccccc4)C(C)=C(C(OC(C)=O)C(=O)C12C)C3(C)C (stereo not drawn) [Compound 17] | −9.7 | −10.4 | −10.2 | −7.1 | −10.0 | −10.5 | −7.1 | inactive | −9.0 | – | – |
| CC(=O)O[C@H]1C(=O)[C@@]2(C)[C@H]([C@H](OC(=O)c3ccccc3)[C@]3(O)C[C@H](OC(=O)[C@H](O)[C@@H](NC(=O)c4ccccc4)c4ccccc4)C(C)=C1C3(C)C)[C@]1(OC(C)=O)CO[C@@H]1C[C@@H]2O [Paclitaxel, reference compound] | −12.2 | −12.1 | −12.2 | −13.9 | −7.1 | −11.7 | −10.3 | – | −11.1 | – | – |
